Measured values reported in patent US20050004167A1, “Branched chain amino acid-dependent aminotransferase inhibitors and their use in the treatment of neurodegenerative diseases” (WARNER-LAMBERT COMPANY LLC, priority 2001, published 2005).
“And” between values parts separate entries of the source, which are not always exact repeats. Identical values can stand only once.

biological target: T1, human Branched Chain Amino Acid Aminotransferase cytosolic form (hBCATc) (Homo sapiens, UniProt P54687); assay: In vitro coupled enzyme assay (glutamate dehydrogenase, NADH formation), human BCATc; assay type: biochemical; conditions: recombinant human BCATc, 37° C., 25 mM phosphate buffer pH 7.8; several values in a cell = repeat determinations; read-out: RhBCATc
T1 construct: made in house; host or cells: E. coli BL21(DE3)
T1 sequence (P54687 1-386): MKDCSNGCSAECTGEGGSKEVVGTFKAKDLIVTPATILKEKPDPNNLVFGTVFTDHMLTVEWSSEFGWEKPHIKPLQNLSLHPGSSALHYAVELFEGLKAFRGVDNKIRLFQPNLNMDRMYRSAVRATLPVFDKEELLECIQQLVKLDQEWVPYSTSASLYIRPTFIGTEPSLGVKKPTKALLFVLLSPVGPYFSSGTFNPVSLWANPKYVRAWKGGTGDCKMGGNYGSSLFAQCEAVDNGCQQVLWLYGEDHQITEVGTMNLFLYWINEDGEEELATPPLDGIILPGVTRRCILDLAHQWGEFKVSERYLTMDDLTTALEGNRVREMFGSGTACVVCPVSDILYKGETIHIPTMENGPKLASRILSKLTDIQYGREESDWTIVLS
Experimental: In vitro enzyme assay—human Branched Chain Amino Acid Aminotransferase cytosolic form (hBCATc) and mitochondrial form (hBCATm) as well as rat BCAT cytosolic form were assayed at 37° C. in 25 mM phosphate buffer pH 7.8. In addition, 2 mM DTT and 12.5 mM […] were added to the assay mixture. A coupling enzyme assay was used to monitor the production of glutamate. The formation of NADH from NAD+ at […] was followed on a 96-well plate Molecular Devices plate reader.
The following components were used in this coupled assay: 4 mM ADP, 1 mM NAD+, 750 μM L-Leucine, 500 μM α-ketoglutarate, 10 μM pyridoxal phosphate, 1 unit glutamate dehydrogenase, and 1.25 μg of the appropriate BCAT enzyme. Inhibitions by compounds were assayed by adding various concentrations to this coupled assay procedure as a DMSO stock up to a 5% v/v DMSO/buffer ratio.
Enzyme Preparation—humanBCATc and ratBCATc were expressed in BL21(DE3) cells. A growing culture of cells was induced with 1 mM IPTG at room temperature overnight. These cells were harvested by centrifugation at 10,000 g for 20 minutes. The supernatant was discarded, and the cells were stored at −80° C. until needed. The protein was purified by the following method. The cell paste was resuspended in extraction buffer (0.1 M phosphate, pH 8.0, with 0.01 M Tris-HCL and 5 mM TCEP and then lysed on a French Press at 1000 psi. The lysate was centrifuged at 10,000 g for 15 minutes, and the pellet was discarded. The supernatant was loaded onto a Hitrap Chelating column previously charged with 0.1 M NiSO4 and washed with 3 to 4 column volumes of extraction buffer. The column was then washed with 0.01 Tris, pH 7.5, 10% glycerol, 150 mM NaCl, 5 mM TCEP for two column volumes. The column was then further washed with two column volumes of 0.1 M phosphate, pH 6.0, 0.01 M Tris, 10% glycerol and 750 mM NaCl. Finally, the column was washed with two column volumes of the same buffer plus 50 mM imidazole. The BCAT enzyme was then eluted with the same buffer but with 350 mM imidazole. The eluant was then dialyzed overnight against 10 mM phosphate buffer pH 8.0, 10% glycerol, and 5 mM TCEP. The dialyzed protein was then loaded onto a Q-sepharose column and eluted using a salt gradient. Active fractions were collected and further purified on a Superose-12 column to yield pure BCAT protein.

| SMILES | IC50 |
| --- | --- |
| O=C(NNS(=O)(=O)c1cccc(F)c1)c1cnc2ccccc2c1 [Example 133, 3-Quinolinecarboxylic acid, 2-[(3-fluorophenyl)sulfonyl]hydrazide] | > 100 µM |
| O=C(NNS(=O)(=O)c1cccc(Cl)c1)c1cnc2ccccc2c1 [Example 131, 3-Quinolinecarboxylic acid, 2-[(3-chlorophenyl)sulfonyl]hydrazide] | 61 µM |
| O=C(NNS(=O)(=O)c1cccc(Cl)c1)c1ccc2ncccc2c1 [Example 130, 6-Quinolinecarboxylic acid, 2-[(3-chlorophenyl)sulfonyl]hydrazide] | 22 µM |
| COc1cccc2cc(C(=O)NNS(=O)(=O)c3ccccc3C(F)(F)F)oc12 [Example 54, 2-Benzofurancarboxylic acid, 7-methoxy-, 2-[[2-(trifluoromethyl)phenyl]-sulfonyl]hydrazide] | 3.76 µM |
| Cc1cccc(S(=O)(=O)NNC(=O)c2ccc3ncccc3c2)c1 [Example 128, 6-Quinolinecarboxylic acid, 2-[(3-methylphenyl)sulfonyl]hydrazide] | 12 µM |
| O=C(NNS(=O)(=O)c1cc(Cl)cc(Cl)c1)c1ccc2ncccc2c1 [Example 138, 6-Quinolinecarboxylic acid, 2-[(3,5-dichlorophenyl)sulfonyl]hydrazide] | > 100 µM |
| O=C(NNS(=O)(=O)c1cc(Cl)cc(Cl)c1)c1cnc2ccccc2c1 [Example 139, 3-Quinolinecarboxylic acid, 2-[(3,5-dichlorophenyl)sulfonyl]hydrazide] | 41 µM |
| O=C(NNS(=O)(=O)c1cccc(F)c1)c1ccc2ncccc2c1 [Example 132, 6-Quinolinecarboxylic acid, 2-[(3-fluorophenyl)sulfonyl]hydrazide] | 40 µM |

Next, values leading:

| IC50 | SMILES |
| --- | --- |
| 16.8 µM | Cc1ccc(S(=O)(=O)NNC(=O)c2cnc3ccccc3c2)cc1 [Example 127, 3-Quinolinecarboxylic acid, 2-[(4-methylphenyl)sulfonyl]hydrazide] |
| 90.5 µM | O=C(NNS(=O)(=O)c1ccccc1)c1cccc2oc3ccccc3c12 [Example 12, 1-Dibenzofurancarboxylic acid 2-(phenylsulfonyl)hydrazide] |
| 3.7 µM | COc1c(C(=O)NNS(=O)(=O)c2ccccc2)oc2ccc(Cl)cc12 [Example 78, 2-Benzofurancarboxylic acid, 5-chloro-3-methoxy, 2-(phenylsulfonyl)hydrazide] |
| > 100 µM | O=C(NNS(=O)(=O)c1ccccc1)c1cccc2cccnc12 [Example 21, Quinoline-8-carboxylic acid 2-(phenylsulfonyl)hydrazide] |
| 13 µM | Cc1cccc(S(=O)(=O)NNC(=O)c2cnc3ccccc3c2)c1 [Example 129, 3-Quinolinecarboxylic acid, 2-[(3-methylphenyl)sulfonyl]hydrazide] |
| 3.53 µM and 3.3 µM | COc1cccc2cc(C(=O)NNS(=O)(=O)c3cccc(C)c3)oc12 [Example 55, 2-Benzofurancarboxylic acid, 7-methoxy-, 2-[(3-methylphenyl)sulfonyl]hydrazide] |
| > 100 µM | O=C(NNS(=O)(=O)c1ccccc1)c1nccc2ccccc12 [Example 152, Isoquinoline-1-carboxylic acid 2-(phenylsulfonyl)hydrazide] |

test system: not given; assay: not given; conditions: not given

| SMILES | melting point |
| --- | --- |
| Cc1ccc2oc(C(=O)NNS(=O)(=O)c3ccccc3C(F)(F)F)cc2c1 (hydrate or solvate) [Example 79, 2-Benzofurancarboxylic acid, 5-methyl-, 2-[[2-(trifluoromethyl)phenyl]sulfonyl]-hydrazide] | 194 to 195.4 °C |
| Cc1ccc2oc(C(=O)NNS(=O)(=O)c3ccccc3OC(F)(F)F)cc2c1 (hydrate or solvate) [Example 85, 2-Benzofurancarboxylic acid, 5-methyl-, 2-[[2-(trifluoromethoxy)phenyl]-sulfonyl]hydrazide] | 226.7 to 227 °C |
| Cc1ccc2oc(C(=O)NNS(=O)(=O)c3cccc(Br)c3)cc2c1 (hydrate or solvate) [Example 83, 2-Benzofurancarboxylic acid, 5-methyl-, 2-[3-(bromophenyl)sulfonyl]hydrazide] | 207.2 to 209.9 °C |
| O=C(NNS(=O)(=O)c1cccc(F)c1)c1cnc2ccccc2c1 (hydrate or solvate) [Example 133, 3-Quinolinecarboxylic acid, 2-[(3-fluorophenyl)sulfonyl]hydrazide] | 247.8 to 248.4 °C |
| O=C(NNS(=O)(=O)c1ccccc1Br)c1cc2cc(Cl)cc(Cl)c2o1 (hydrate or solvate) [Example 73, 2-Benzofurancarboxylic acid, 5,7-dichloro 2-[(2-bromophenyl)sulfonyl]-hydrazide] | 196.2 to 196.6 °C |
| O=C(NNS(=O)(=O)c1cccc(F)c1)c1ccc2ncccc2c1 (hydrate or solvate) [Example 132, 6-Quinolinecarboxylic acid, 2-[(3-fluorophenyl)sulfonyl]hydrazide] | 250.6 to 251.3 °C |

Next, values leading:

| melting point | SMILES |
| --- | --- |
| 211 to 214 °C | O=C(NNS(=O)(=O)c1ccccc1)c1ccc2ncccc2c1 (hydrate or solvate) [Example 13, Quinoline-6-carboxylic acid 2-(phenylsulfonyl)hydrazide] |
| 198 to 200 °C | O=C(NNS(=O)(=O)c1ccccc1)c1nccc2ccccc12 (hydrate or solvate) [Example 152, Isoquinoline-1-carboxylic acid 2-(phenylsulfonyl)hydrazide] |
| 230.6 to 231 °C | COc1cc(OC)c2cc(C(=O)NNS(=O)(=O)c3ccccc3)oc2c1 (hydrate or solvate) [Example 60, 2-Benzofurancarboxylic acid, 4,6-dimethoxy-, 2-(phenylsulfonyl)hydrazide] |
| 223.4 to 224.1 °C | O=C(NNS(=O)(=O)c1ccccc1[N+](=O)[O-])c1ccc2oc3ccccc3c2c1 [Example 162, 2-Dibenzofurancarboxylic acid, 2-[(2-nitrophenyl)sulfonyl]hydrazide] |
| 268.2 to 269.1 °C | O=C(NNS(=O)(=O)c1ccccc1)c1cc2cc([N+](=O)[O-])ccc2[nH]1 [Example 170, 2-Indolecarboxylic acid, 5-nitro-2-phenylsulfonyl hydrazide] |
| 205.7 to 207.1 °C | COc1c(C(=O)NNS(=O)(=O)c2ccccc2)oc2cc3ccccc3cc12 (hydrate or solvate) [Example 68, Naptho[2,3-b]furan-2-carboxylic acid, 3-methoxy-, 2-(phenylsulfonyl)hydrazide] |
| 180.7 to 181.3 °C | COc1c(C(=O)NNS(=O)(=O)c2ccccc2)oc2ccc(-c3ccccc3)cc12 (hydrate or solvate) [Example 65, 2-Benzofurancarboxylic acid, 3-methoxy-5-phenyl-, 2-(phenylsulfonyl)hydrazide] |
| 209 to 211 °C | O=C(NNS(=O)(=O)c1ccccc1)c1ccc2[nH]ccc2c1 (hydrate or solvate) [Example 153, 1H-Indole-5-carboxylic acid 2-(phenylsulfonyl)hydrazide] |
| 190.9 to 191.1 °C | COc1c(C(=O)NNS(=O)(=O)c2ccc(F)cc2)oc2c(OC)cccc12 (hydrate or solvate) [Example 63, 2-Benzofurancarboxylic acid, 3,7-dimethoxy-, 2-[(4-fluorophenyl)sulfonyl]-hydrazide] |
